According to publication PMC10026764, “Overcoming the imatinib-resistant BCR-ABL mutants with new ureidobenzothiazole chemotypes endowed with potent and broad-spectrum anticancer activity” (Journal of Enzyme Inhibition and Medicinal Chemistry, 2023):
Read-outs that look alike come from different tables or passages of the source. One block for each compound: values may come before it.

Tests used:
MOLT-4 = test: NCI-60 five-dose SRB assay; type: cell-based, human; settings: MOLT-4, leukaemia; for GI50 / CC50: Homo sapiens; for CC50: read-out: LC50 (the source's name)
SF-295 = test: NCI-60 five-dose SRB assay; type: cell-based; settings: Homo sapiens; SF-295, CNS cancer
NCI-H226 = test: NCI-60 five-dose SRB assay; type: cell-based; settings: Homo sapiens; NCI-H226, non-small cell lung cancer
MCF7 = test: NCI-60 five-dose SRB assay; type: cell-based, human; settings: MCF7, breast cancer; for GI50 / CC50: Homo sapiens; for CC50: read-out: LC50 (the source's name)
K-562 = test: NCI-60 five-dose SRB assay; type: cell-based, human; settings: K-562, leukaemia
HCT-15 = test: NCI-60 five-dose SRB assay; type: cell-based, human; settings: HCT-15, colon cancer; for GI50 / CC50: Homo sapiens; for CC50: read-out: LC50 (the source's name)
KM12 = test: NCI-60 five-dose SRB assay; type: cell-based; settings: Homo sapiens; KM12, colon cancer
RXF 393 = test: NCI-60 five-dose SRB assay; type: cell-based; settings: Homo sapiens; RXF 393, renal cancer
ACHN = test: NCI-60 five-dose SRB assay; type: cell-based, human; settings: renal cancer; for GI50 / CC50: Homo sapiens; for CC50: read-out: LC50 (the source's name)
MDA-MB-468 = test: NCI-60 five-dose SRB assay; type: cell-based; settings: Homo sapiens; MDA-MB-468, breast cancer
NCI-H322M = test: NCI-60 five-dose SRB assay; type: cell-based, human; settings: for CC50 / GI50: Homo sapiens; for CC50 / TGI: NSCL cancer; for CC50: read-out: LC50 (the source's name); for GI50: non-small cell lung cancer
NCI/ADR-RES = test: NCI-60 five-dose SRB assay; type: cell-based; settings: Homo sapiens, ovarian cancer
MDA-MB-435 = test: NCI-60 five-dose SRB assay; type: cell-based; settings: Homo sapiens; MDA-MB-435, melanoma
T-47D = test: NCI-60 five-dose SRB assay; type: cell-based; settings: Homo sapiens, T47D, breast cancer
SN12C = test: NCI-60 five-dose SRB assay; type: cell-based; settings: Homo sapiens, renal cancer
MDA-MB-231 = test: NCI-60 five-dose SRB assay; type: cell-based; settings: Homo sapiens; MDA-MB-231, breast cancer
SK-MEL-2 = test: NCI-60 five-dose SRB assay; type: cell-based; settings: Homo sapiens; SK-MEL-2, melanoma
HCC-2998 = test: NCI-60 five-dose SRB assay; type: cell-based; settings: Homo sapiens; HCC-2998, colon cancer
DU-145 = test: NCI-60 five-dose SRB assay; type: cell-based, human; settings: DU-145, prostate cancer; for GI50 / CC50: Homo sapiens; for CC50: read-out: LC50 (the source's name)
HL-60(TB) = test: NCI-60 five-dose SRB assay; type: cell-based; settings: Homo sapiens, leukaemia
IGROV1 = test: NCI-60 five-dose SRB assay; type: cell-based; settings: Homo sapiens, IGROV-1; IGROV1, ovarian cancer
leukaemia K-562 cells = test: MTT antiproliferative assay; settings: for GI50: Homo sapiens, K562, 72 h, read-out: GI50 K-562; for SI: selectivity index (GI50 (L132)/GI50 (K562)): MTT, 72 h
HOP-92 = test: NCI-60 five-dose SRB assay; type: cell-based; settings: Homo sapiens; HOP-92, non-small cell lung cancer
LOX IMVI = test: NCI-60 five-dose SRB assay; type: cell-based; settings: Homo sapiens, melanoma
HS 578T = test: NCI-60 five-dose SRB assay; type: cell-based; settings: Homo sapiens, breast cancer
NCI 60-cell line panel = test: cells; type: cell-based
SNB-19 = test: NCI-60 five-dose SRB assay; type: cell-based; settings: Homo sapiens; SNB-19, CNS cancer
COLO 205 = test: NCI-60 five-dose SRB assay; type: cell-based; settings: Homo sapiens; COLO 205, colon cancer
A549/ATCC = test: NCI-60 five-dose SRB assay; type: cell-based; settings: Homo sapiens, non-small cell lung cancer
OVCAR-8 = test: NCI-60 five-dose SRB assay; type: cell-based; settings: Homo sapiens; OVCAR-8, ovarian cancer
UACC-62 = test: NCI-60 five-dose SRB assay; type: cell-based; settings: Homo sapiens; UACC-62, melanoma
HCT-116 = test: NCI-60 five-dose SRB assay; type: cell-based; settings: Homo sapiens; HCT-116, colon cancer
L132 normal cell = test: MTT antiproliferative assay; settings: Homo sapiens, L132, 72 h, read-out: GI50 L132
SW-620 = test: NCI-60 five-dose SRB assay; type: cell-based; settings: Homo sapiens; SW-620, colon cancer
A498 = test: NCI-60 five-dose SRB assay; type: cell-based; settings: Homo sapiens; A498, renal cancer
NCI-H460 = test: cells; type: cell-based; settings: for CC50 / TGI: NCI-H460, NSCL cancer; for CC50: read-out: LC50 (the source's name)
RPMI-8226 = test: NCI-60 five-dose SRB assay; type: cell-based; settings: Homo sapiens; RPMI-8226, leukaemia
OVCAR-4 = test: NCI-60 five-dose SRB assay; type: cell-based; settings: Homo sapiens; OVCAR-4, ovarian cancer
[1] = Homo sapiens, 60 cell, all tested melanoma cell lines, read-out: GI50
[2] = Homo sapiens, COLO205, HCC-2998, HCT-116 and HCT-15 colon cancer cells, read-out: GI50
[3] = Homo sapiens, NCI-H460, NCI-H460, non-small cell lung cancer

Compound: CCN1CCN(c2ccc(NC(=O)Nc3nc4ccc(-c5ccccc5OC)cc4s3)cc2)CC1 [Compound 2b]
GI50 (MOLT-4): 1800 nM
CC50 (MOLT-4): 7450 nM
TGI (MOLT-4): 3670 nM
GI50 (SF-295): 1680 nM
GI50 (NCI-H226): 2090 nM
GI50 (MCF7): 1310 nM
CC50 (MCF7): 6250 nM
TGI (MCF7): 2860 nM
GI50 (K-562; Homo sapiens, K562): 293 nM
TGI (K-562): 1340 nM
TGI (HCT-15): 2470 nM
GI50 (HCT-15): 1200 nM
CC50 (HCT-15): 5060 nM
GI50 (KM12): 1750 nM
GI50 (RXF 393): 1700 nM
GI50 (ACHN): 1740 nM
CC50 (ACHN): 5580 nM
TGI (ACHN): 3110 nM
GI50 (MDA-MB-468): 2170 nM
CC50 (NCI-H322M): 5990 nM
GI50 (NCI-H322M): 1530 nM
TGI (NCI-H322M): 3030 nM
GI50 (NCI/ADR-RES): 1720 nM
GI50 (MDA-MB-435): 1710 nM
GI50 (T-47D): 1580 nM
GI50 (SN12C): 1770 nM
GI50 (MDA-MB-231): 1720 nM
GI50 (SK-MEL-2): 1940 nM
GI50 (HCC-2998): 1830 nM
TGI (DU-145): 3260 nM
GI50 (DU-145): 1740 nM
CC50 (DU-145): 6080 nM
GI50 (HL-60(TB)): 1730 nM
GI50 (IGROV1): 1870 nM
GI50 (leukaemia K-562 cells): 3390 nM
SI: selectivity index (GI50 (L132)/GI50 (K562)) (leukaemia K-562 cells): 5.3
GI50 (HOP-92): 1470 nM
GI50 (LOX IMVI): 1700 nM
GI50 (HS 578T): 1950 nM
GI50 (NCI 60-cell line panel; Homo sapiens, 60 cell, all ovarian cancer cell lines, read-out: GI50): < 2000 nM
GI50 (NCI 60-cell line panel; [1]): 1540 to 2510 nM
LC50 (NCI 60-cell line panel; Homo sapiens, 60 cell, several cancer cells): < 10000 nM
GI50 (NCI 60-cell line panel; [2]): 1070 to 2650 nM
GI50 (NCI 60-cell line panel; all examined cell lines): one-digit micromolar
TGI (NCI 60-cell line panel; several cancer cells): < 5000 nM
GI50 (SNB-19): 2030 nM
GI50 (COLO 205): 1970 nM
GI50 (A549/ATCC): 1980 nM
GI50 (OVCAR-8): 1990 nM
GI50 (UACC-62): 1870 nM
GI50 (HCT-116): 1580 nM
GI50 (L132 normal cell): 17900 nM
GI50 (SW-620): 1940 nM
GI50 (A498): 1800 nM
GI50 (NCI-H460; [3]): ~1760 nM
CC50 (NCI-H460; Homo sapiens): 6010 nM
TGI (NCI-H460): 3270 nM
GI50 (NCI-H460; NCI-H460, non-small cell lung cancer): 1770 nM
GI50 (RPMI-8226): 2060 nM
GI50 (OVCAR-4): 1680 nM

Compound: COc1ccccc1-c1ccc2nc(NC(=O)Nc3cc(C(F)(F)F)cc(C(F)(F)F)c3)sc2c1 [Compound 2e]
GI50 (MOLT-4): 1590 nM
CC50 (MOLT-4): 51300 nM
TGI (MOLT-4): 7240 nM
GI50 (SF-295): 2640 nM
GI50 (NCI-H226): 2160 nM
GI50 (MCF7): 2280 nM
CC50 (MCF7): 46200 nM
TGI (MCF7): 10900 nM
GI50 (K-562; Homo sapiens, K562): 1540 nM
CC50 (K-562; Homo sapiens, K562, read-out: LC50 (the source's name)): 43900 nM
TGI (K-562): 8950 nM
TGI (HCT-15): 10600 nM
GI50 (HCT-15): 2550 nM
CC50 (HCT-15): 34600 nM
GI50 (KM12): 2070 nM
GI50 (RXF 393): 2190 nM
GI50 (ACHN): 2140 nM
CC50 (ACHN): 28200 nM
TGI (ACHN): 7710 nM
GI50 (MDA-MB-468): 1520 nM
CC50 (NCI-H322M): 37000 nM
GI50 (NCI-H322M): 2780 nM
TGI (NCI-H322M): 9060 nM
GI50 (NCI/ADR-RES): 2370 nM
GI50 (MDA-MB-435): 2270 nM
GI50 (T-47D): 2160 nM
GI50 (SN12C): 1700 nM
GI50 (MDA-MB-231): 1950 nM
GI50 (SK-MEL-2): 2090 nM
GI50 (HCC-2998): 2650 nM
TGI (DU-145): 14900 nM
GI50 (DU-145): 4000 nM
CC50 (DU-145): 42400 nM
GI50 (HL-60(TB)): 2010 nM
GI50 (IGROV1): 2830 nM
GI50 (leukaemia K-562 cells): 13900 nM
SI: selectivity index (GI50 (L132)/GI50 (K562)) (leukaemia K-562 cells): 2.5
GI50 (HOP-92): 1190 nM
GI50 (LOX IMVI): 1680 nM
GI50 (HS 578T): 2350 nM
GI50 (NCI 60-cell line panel; [1]): 1540 to 2510 nM
GI50 (NCI 60-cell line panel; [2]): 1070 to 2650 nM
GI50 (NCI 60-cell line panel; all examined cell lines): one-digit micromolar
GI50 (SNB-19): 2440 nM
GI50 (COLO 205): 1650 nM
GI50 (A549/ATCC): 3190 nM
GI50 (OVCAR-8): 3040 nM
GI50 (UACC-62): 1560 nM
GI50 (HCT-116): 1070 nM
GI50 (L132 normal cell): 35000 nM
GI50 (SW-620): 3040 nM
GI50 (A498): 1640 nM
GI50 (NCI-H460; [3]): 2260 nM
CC50 (NCI-H460; Homo sapiens): 23500 nM
TGI (NCI-H460): 6120 nM
GI50 (RPMI-8226): 1630 nM
GI50 (OVCAR-4): 2120 nM

GI50 (leukaemia K-562 cells): 800 nM
Compound: Cc1ccc(NC(=O)c2ccc(CN3CCN(C)CC3)cc2)cc1Nc1nccc(-c2cccnc2)n1 [Imatinib]
GI50 (L132 normal cell): > 10000 nM
